d = 2'-deoxy (DNA); m = 2'-O-methyl
Assays:
[1] = tested on: A549; assay: cell growth analysis (trypan blue cell count), A549; type: cell-based, human; conditions: 50 nM, 72 hours
Method: (§1) Briefly, human A549 and/or T24 human bladder carcinoma cells were seeded in 10 cm tissue culture dishes one day prior to oligonucleotide treatment. The cell lines were obtained from the American Type Culture Collection (ATCC) (Manassas, Va.) and were grown under the recommended culture conditions. Before the addition of the oligonucleotides, cells were washed with PBS (phosphate buffered saline). Next, lipofectin transfection reagent (GIBCO BRL Mississauga, Ontario, Calif.), at a concentration of 6.25 μg/ml, was added to serum free OPTIMEM medium (GIBCO BRL, Rockville, Md.), which was then added to the cells. The oligonucleotides to be screened were then added directly to the cells (i.e., one oligonucleotide per plate of cells). Mismatched oligonucleotides were used as controls. The same concentration of oligonucleotide (e.g., 50 nM) was used per plate of cells for each oligonucleotide tested.
(§2) In order to determine the effect of HDAC OSDNs on cell growth and cell death through apoptosis, A549 or T24 cells, MDAmb231 cells, and HMEC cells (ATCC, Manassas, Va.) were treated with HDAC OSDNs as previously described.
(§3) Cells were harvested and cell numbers counted by trypan blue exclusion using a hemocytometer. Percentage of inhibition was calculated as (100—AS cell numbers/control cell numbers)%.

[2] = tested on: T24; assay: cell growth analysis (trypan blue cell count), T24; type: cell-based, human; conditions: 50 nM, 72 hours
Method: as §1, §2, §3

[3] = tested on: MDAmb231; assay: cell growth analysis (trypan blue cell count), MDAmb231; type: cell-based, human; conditions: 50 nM, 72 hours
Method: as §1, §2, §3

[4] = tested on: A549; assay: apoptosis, Cell Death Detection ELISA, A549; type: cell-based, human; conditions: OSDN
Method: as §2
(§4) For the apoptosis study, cells were analyzed using the Cell Death Detection ELISA^Plus kit (Roche Diagnostic GmBH, Mannheim, Germany) according to the manufacturer's directions. Typically, 10,000 cells were plated in 96-well tissue culture dishes for 2 hours before harvest and lysis. Each sample was analyzed in duplicate. ELISA reading was done using a MR700 plate reader (DYNEX Technology, Ashford, Middlesex, England) at 410 nm. The reference was set at 490 nm.

[5] = tested on: T24; assay: apoptosis, Cell Death Detection ELISA, T24; type: cell-based, human; conditions: OSDN
Method: as §2, §4

[6] = tested on: MDAmb231; assay: apoptosis, Cell Death Detection ELISA, MDAmb231; type: cell-based, human; conditions: OSDN
Method: as §2, §4

[7] = tested on: HMEC; assay: apoptosis, Cell Death Detection ELISA, HMEC; type: cell-based, human; conditions: OSDN, normal cells
Method: as §2, §4

[8] = tested on: human HDAC-4 RNA; assay: antisense screen by Northern blot in T24 cells, HDAC-4; type: cell-based; conditions: screened as above (T24 cells, 100 nM, 24 hours)
Method: Seventeen phosphorothioate ODNs containing sequences complementary to the 5′ or 3′ UTR of the human HDAC-4 gene (GenBank Accession No. AB006626) were screened as above. […] HDAC-4 MM1 and MM2 oligonucleotides were created as controls; compared to the antisense oligonucleotides, they each contain a 6-base mismatch.
as §1
Cells were harvested, and total RNAs were analyzed by Northern blot analysis. Briefly, total RNA was extracted using RNeasy miniprep columns (QIAGEN). […]

[9] = tested on: p21 protein in A549 cells; assay: Western blot of p21 protein in A549 cells; type: cell-based, human; conditions: FIG. 15
[10] = tested on: human HDAC-7 RNA; assay: antisense screen by Northern blot in T24 cells, HDAC-7; type: cell-based; conditions: screened as above (T24 cells, 100 nM, 24 hours)
Method: Eighteen phosphorothioate ODNs containing sequences complementary to the 5′ or 3′ untranslated regions of the human HDAC-7 gene (GenBank Accession No. AF239243) were screened as above.
as §1
Cells were harvested, and total RNAs were analyzed by Northern blot analysis. Briefly, total RNA was extracted using RNeasy miniprep columns (QIAGEN). Ten to twenty μg of total RNA was run on a formaldehyde-containing 1% agarose gel with 0.5 M sodium phosphate (pH 7.0) as the buffer system. […]

Row | Substance | Growth Inhibition (AS vs. MM) A549 [1] | Growth Inhibition (AS vs. MM) T24 [2] | Growth Inhibition (AS vs. MM) MDAmb231 [3] | Apoptosis After 48 Hour Treatment A549 [4] | Apoptosis After 48 Hour Treatment T24 [5] | Apoptosis After 48 Hour Treatment MDAmb231 [6] | Apoptosis After 48 Hour Treatment HMEC [7] | antisense activity to human HDAC-4 (RNA expression, Northern blot) [8] | expression of the p21 protein [9] | antisense activity to human HDAC-7 (RNA expression, Northern blot) [10]
1 | HDAC-4 AS1: antisense oligonucleotide to human HDAC4, 5-GCTGCCTGCCGTGCCCACCC-3′ (SEQ ID NO:24) (sugars from the 5' end m4 d12 m4, all phosphorothioate, methylation of C and T or U not given here) | +++ (>75% inhibition) | ++ (50-75% inhibition) | ++ (50-75% inhibition) | +++ (5-8X fold) | + (2-3X fold) | ++ (3-5X fold) | − (< = 2x fold over non-specific background) | antisense activity | induces the expression of the p21 protein | 
2 | HDAC-7 AS: antisense oligonucleotide to human HDAC7, 5′-CTTCAGCCAGGATGCCCACA-3′ (SEQ ID NO:31) (sugars from the 5' end m4 d12 m4, all phosphorothioate, methylation of C and T or U not given here) |  |  |  |  |  |  |  |  |  | antisense activity
